Laboratory results as given in US8084209B2, “HMGCR isoforms in prediction of efficacy and identification of cholesterol-modulating compounds” (Children's Hospital & Research Center Oakland, priority 2005, dated 2011).

Legend:
[1] = CAP trial: plasma lipid, lipoprotein and apoprotein response to 40 mg/day simvastatin; format: in vivo, human; set-up: LDL-Cholesterol, Absolute Difference / HDL-Cholesterol, Absolute Difference / ApoA1, Absolute Difference / ApoB, Absolute Difference / IDL-Cholesterol, Absolute Difference: unit not given here; Total Cholesterol, Absolute Difference: unit: mg/dL; conditions: for ApoA1, Absolute Difference / ApoB, Absolute Difference / HDL-Cholesterol, Absolute Difference / IDL-Cholesterol, Absolute Difference / LDL-Cholesterol, Absolute Difference / Total Cholesterol, Absolute Difference: 40 mg/day simvastatin in vivo
Procedure: Patients and cell lines. The Cholesterol/Atherosclerosis Pharmacogenetics (CAP) trial was a non-randomized, non-blinded study of 944 African-American and Caucasian men and women age 30 or older with baseline total cholesterol of 160 to 400 mg/dL.
A subset of 66 African American patients from the CAP trial was chosen for testing of the HMGCR gene expression assay (Examples 1, 2, 3, 4 and 5). An African American was defined as an individual who had three or more grandparents who self-identified as African American. A Caucasian was defined as an individual who had three or more grandparents who self-identified as Caucasian American. The table below provides a summary of the demographics for this population.
The table below provides a summary of the population demographics.
A dose study was performed with a second subset of 60 African American patients (Examples 1, 3, 4, and 5). […] The population demographics for this group is shown below.

[2] = test system: total HMGCR (6-7) transcript; assay: HMGCR gene expression by real time PCR in immortalized lymphocyte cell lines, exons 6 to 7 assay; format: cell-based, human; conditions: 24 hours
Procedure: Cell lines were grown at 37° C., 5% CO2 in RPMI Medium 1640 (Invitrogen) supplemented with 10% fetal bovine serum (Hyclone), 500 units/ml Penicillin/Streptomycin (Invitrogen) and 2 nM GlutaMAX (Invitrogen). […] Media was changed 24 hours prior to exposure to ensure the cultures were in an active growth phase. After exposure, cells were pelleted, resuspended in Trizol (Invitrogen), and stored at −80° C. until RNA extraction.
RNA isolation and cDNA synthesis. RNA was isolated from the cell/Trizol slurries following the manufacturer's protocol (Invitrogen). RNA quality was assessed by gel electrophoresis and A260/A280 measured via spectrophotometry. […]
Real time PCR standards were generated by amplifying 100 ng lymphocyte cDNA with 1×PCR buffer, 1.5 mM MgCl2, 0.5 mM dNTPs, 1 mM of each primer, and 0.125 units Taq DNA polymerase (Invitrogen). […] Eight PCR reactions for each standard was generated, pooled, and quantitated via gel electrophoresis using a DNA low mass ladder (Invitrogen). […] PCR standards were run in triplicate on each plate to serve as a positive control for the assay and to quantitate levels of gene expression.
SLC7A5 and CLPTM1 were quantitated in all samples by TaqMan assays purchased from Applied Biosystems (part numbers Hs0018526_m1 and Hs00171300_m1). […]
HMGCR(12-13) and spliced HMGCR(12-14) mRNA was quantified via real time PCR as described above.

[3] = Study Population A, African Americans, N 66
[4] = Study Population B, Caucasian Americans, N 43
[5] = Study Population C, African Americans, N 60
[6] = on statin therapy, data in Examples 1-5

For CCC(C)(C)C(=O)O[C@H]1C[C@@H](C)C=C2C=C[C@H](C)[C@H](CC[C@@H]3C[C@@H](O)CC(=O)O3)[C@H]21 [simvastatin], the “mean HDL-cholesterol increase” value ([1]; African Americans, on statin therapy) was 0.96 mg/dL, the “mean HDL-cholesterol increase” value ([1]; Caucasian Americans, on statin therapy) was 2.17 mg/dL and the “ApoA1, Absolute Difference” value [1, 3] was −1.69 ± 1.76. For the same compound, the “ApoB, Absolute Difference” value [1, 3] was −27.11 ± 1.71, the “HDL-Cholesterol, Absolute Difference” value [1, 3] was 0.96 ± 0.75 and the “IDL-Cholesterol, Absolute Difference” value [1, 3] was −9.06 ± 0.75. For the same compound, the “LDL-Cholesterol, Absolute Difference” value [1, 3] was −51.17 ± 2.37, the “Total Cholesterol, Absolute Difference” value [1, 3] was −54.48 ± 2.79 and the “ApoA1, Absolute Difference” value [1, 4] was −2.114 ± 2.271. The “ApoB, Absolute Difference” value [1, 4] was −33.091 ± 2.700, the “HDL-Cholesterol, Absolute Difference” value [1, 4] was 2.155 ± 0.904 and the “IDL-Cholesterol, Absolute Difference” value [1, 4] was −10.373 ± 1.066. The “LDL-Cholesterol, Absolute Difference” value [1, 4] was −63.909 ± 3.455, the “Total Cholesterol, Absolute Difference” value [1, 4] was −65.614 ± 3.791 and the “ApoA1, Absolute Difference” value [1, 5] was 2.80 ± 1.79. The “ApoB, Absolute Difference” value [1, 5] was −28.03 ± 1.88, the “HDL-Cholesterol, Absolute Difference” value [1, 5] was 1.98 ± 0.55 and the “IDL-Cholesterol, Absolute Difference” value [1, 5] was −10.23 ± 0.80. The “LDL-Cholesterol, Absolute Difference” value [1, 5] was −55.74 ± 3.36, the “Total Cholesterol, Absolute Difference” value [1, 5] was −57.73 ± 3.62 and the “mean IDL cholesterol reduction (printed: mean total cholesterol reduction)” value [1, 6] was -9.85 mg/dL. The “mean LDL-cholesterol reduction” value [1, 6] was -56.0 mg/dL, the “mean total cholesterol reduction” value [1, 6] was -58.5 mg/dL and the “up-regulation of HMGCR(6-7)” value ([2]; African American cell lines, 14.5 μM simvastatin) was 1.65±0.48 fold. For the same compound, the “total HMGCR (6-7) gene up-regulation, average fold change” value ([2]; cell lines derived from African Americans, 1.8 μM activated simvastatin) was 1.44 fold.
